Laboratory results from patent US9084782B2, “Chemical inhibitors of cholesterol biosynthesis and venous angiogenesis” (The Regents of the University of California, priority 2011, dated 2015).
“Also recorded” adds a separate entry of the source.

Assays:
cardiomyocytes = test: Cardiomyocyte migration / heart tube formation in Tg(myl7:GFP) embryos; assay type: in vivo, zebrafish; conditions: 30 μM aplexone
Description: A,B,C, Overall phenotype of control and aplexone-treated embryos at 30 hpf. A′,B′,C′, Vasculature in trunk. […] D-E, Germ cells in control and aplexone treated embryos at 24 hpf were detected by in situ hybridization using the nanos probe. F, The percentage of embryos with ectopic primordial germ cells in control (n=26), 5 μM (n=13), and 10 μM (n=14) aplexone-treated embryos. […] I, The percentage of embryos with cardia bifida in control (n=16) and 10 μM-(n=17), 20 μM-(n=17) and 30 μM-(n=18) aplexone-treated embryos.

[1] = system: Tg(kdrl:GFP) zebrafish embryos; test: Caudal vein plexus (CVP) formation / venous angiogenesis in Tg(kdrl:GFP) zebrafish embryos; assay type: in vivo
Excerpt: (§1) Images of GFP expression in Tg(kdrl:GFP) embryos were acquired using a Zeiss SV-11 epifluorescence microscope. Confocal images were acquired using a Carl Zeiss Laser Scanning Systems LSM510 equipped with 20× air, 20× water or 40× water immersion objectives. For single time point confocal images, embryos were anesthetized with 0.01% tricaine and embedded in 1% agarose. When capturing time-lapse confocal movies, embryos were mounted in 3.5% methylcellulose (Sigma-Aldrich) and imaged for 5 hrs on a heated stage at 28.5° C. The images obtained were analyzed using the Zeiss LSM Image Brower version 4 and Image J.
A synthetic chemical library containing 168 compounds (Castellano et al., 2007) and 300 chemicals from Biomol International LP, consisting of 72 ion channel inhibitors (Cat No. 2805), 84 kinase/phosphatase inhibitors (Cat No. 2831), 84 orphan ligands (Cat No. 2825), and 60 endocannabinoids (Cat No. 2801) were screened. The synthetic small molecules were prepared through nucleophilic phosphine catalysis of allenoates (Zhu et al., 2003). Four Tg(kdrl:GFP) embryos were placed into each well of 96-well plates containing a 10 μM solution of each chemical compound dissolved in embryo buffer with 0.1% DMSO. The embryos were raised at 28.5° C. and examined for defects in blood vessel development at 1 and 2 days after treatment. Standard parameters such as numbers of somites and head to body angle were used to determine the stages of zebrafish embryos (Kimmel et al., 1995).
Aplexone treatment described in this study was carried out at a concentration of 10 μM starting at 10 hpf unless otherwise specified.
8 ng tnnt2 MO (Gene Tools) (Sehnert et al., 2002), 3 nl of 4 mM GGTI-2133 (Calbiochem), 3 nl of 5 mM L744,832 (Calbiochem) and 1 nl of 2M mevalonate (Sigma-Aldrich) were injected into 1-2 cell stage embryos.
The library of 168 compounds^24 prepared through the nucleophilic phosphine catalysis of allenes were screened using Tg(kdrl:GFP) zebrafish. Four embryos were placed in each well of 96-well plates containing a 10 uM solution of each chemical compound dissolved in embryo buffer with 0.1% DMSO. The embryos were raised at 28.5° C. and defects in blood vessel development were examined at 1 and 2 days after fertilization.

[2] = system: Tg(kdrl:GFP) zebrafish embryos; test: Primary ISV formation (arterial-derived angiogenesis) in zebrafish embryos; assay type: in vivo
Excerpt: as §1
A synthetic chemical library containing 168 compounds (Castellano et al., 2007) and 300 chemicals from Biomol International LP, consisting of 72 ion channel inhibitors (Cat No. 2805), 84 kinase/phosphatase inhibitors (Cat No. 2831), 84 orphan ligands (Cat No. 2825), and 60 endocannabinoids (Cat No. 2801) were screened. […]
To understand whether angiogenesis from arterial and venous ECs are under different genetic controls we screened a collection of small molecules for compounds that preferentially suppress angiogenesis from exclusively one cell type. In this screen, we used the primary ISV sprouts as the readout for arterial-derived angiogenesis, and the CVP and secondary ISV sprouts as indicators of venous-derived angiogenesis. […]

HMGCR pathway [3] = test: Microarray expression profiling of aplexone-treated embryos (Affymetrix Zebrafish GeneChip); assay type: in vivo; conditions: 10 μM, RNA at 30 hpf
Description: (§2) Embryos at the 5-somite stage were treated with 0.4% DMSO (control) or 10 μM of aplexone in 0.4% DMSO and total RNA was isolated using the RNAeasy micro kit (Qiagen) at 30 hpf. Microarray analysis was performed in triplicate using the Affymetrix Zebrafish GeneChip, representing 15,617 genes. Synthesis and labeling of antisense RNA was performed as recommended by the array manufacturer using kits from Invitrogen for double-stranded cDNA synthesis, Enzo Life Sciences for transcription and labeling of antisense RNA and Affymetrix for probe purification and hybridization controls. Microarray hybridization data were analyzed using scripts written in the statistical programming language R (Team, 2009). Differentially expressed genes (DEGs) were identified using a linear model and multiple testing correction from the limma package (Smyth, 2004). The expression values were obtained using the robust multi array algorithm (Irizarry et al., 2003).

HMGCR pathway [4] = test: Quantitative RT-PCR of aplexone-treated embryos; assay type: in vivo, zebrafish; conditions: qPCR, GAPDH-normalized
Description: as §2
Quantitative RT-PCR was performed as follows. First strand cDNA was synthesized using the SuperScript™ first-strand synthesis system for RT-PCR (Invitrogen) and relative expression levels of genes were determined using iQ SYBR Green Supermix and an iCycler (Bio-Rad Laboratories). GAPDH was used for normalization.

mCherry-RhoCLVL = test: Localization of chimeric protein mCherry-RhoCLVL (geranylgeranylation); assay type: in vivo, zebrafish; conditions: 10 μM aplexone, 80% epiboly
Description: mCherry-RhoCLVL was generated by PCR amplification of mCherry from pmCherry-N3 (a generous gift from S. Walsh) using primers containing sequences coding for the C-terminal 20 amino acid residues of human RhoA. mCherry-RasCVLS was amplified from pME-mCherryCAAX (a generous gift from C.-B. Chien). The PCR products were sub-cloned into pcGlobin2 (Ro et al., 2004) and mRNA was synthesized using the mMESSAGE mMACHINE kit (Ambion). Zebrafish embryos were injected with 250 pg of mCherry-RhoCLVL and mCherry-RasCVLS mRNA at 1-cell stage, and raised with or without the presence of 10 μM aplexone at 25° C. and fixed at 80% epiboly. Cellular localizations of the mCherry chimeras were analyzed with confocal microscopy.

Question: Which “fusion of cardiac primordia / cardiomyocyte migration to midline” value (cardiomyocytes) does the source give for `CC(=O)C1=CCC(c2ccccc2)N(S(=O)(=O)c2ccc(C)cc2)C1` (stereo not drawn) [aplexone] here?
Answer: defects in the fusion of the bilaterally positioned cardiac primordia; also recorded: fail to migrate to midline

Question: What about the “CVP formation at suboptimal level” value ([1]; 2 μM single agent) of the same molecule?
Answer: normal CVP

Question: And the “formation of the CVP” value ([1]; 10 μM aplexone from 10 hpf)?
Answer: severely defective

Question: What about the “secondary ISVs (venous-derived sprouts)” value ([1]; 10 μM from 10 hpf, 2-day-old embryos) of the same molecule?
Answer: absent

Question: And the “development of primary ISVs” value ([2]; 10 μM aplexone)?
Answer: indistinguishable; also recorded: does not affect the development of primary ISVs

Question: What about the “development of primary ISVs” value ([2]; 30 μM aplexone) of the same molecule?
Answer: shorter and never reach the dorsal side of the somites; also recorded: inhibits the growth of primary ISVs

Question: And the “fold change 3-hydroxy-3-methylglutaryl-Coenzyme A synthase 1 (HMGCS)” value (HMGCR pathway [3])?
Answer: 2.0 fold

Question: What about the “fold change Krueppel-like factor 11 (TIEG-2)” value (HMGCR pathway [3]) of the same molecule?
Answer: 2.1 fold

Question: And the “fold change carbonyl reductase 1-like” value (HMGCR pathway [3])?
Answer: 2.1 fold

Question: And the “fold change coronin, actin binding protein, 1A” value (HMGCR pathway [3])?
Answer: −2.1 fold

Question: What about the “fold change cytochrome P450, family 51 (CYP51)” value (HMGCR pathway [3]) of the same molecule?
Answer: 2.8 fold

Question: What about the “fold change farnesyl diphosphate synthetase (FDPS)” value (HMGCR pathway [3]) of the same molecule?
Answer: 2.0 fold

Question: What about the “fold change fatty acid desaturase 2” value (HMGCR pathway [3]) of the same molecule?
Answer: 2.4 fold

Question: And the “fold change glutamate dehydrogenase 1a” value (HMGCR pathway [3])?
Answer: 2.2 fold

Question: And the “fold change glutathione S-transferase” value (HMGCR pathway [3])?
Answer: 3.2 fold

Question: And the “fold change glutathione reductase like” value (HMGCR pathway [3])?
Answer: 2.2 fold

Question: What about the “fold change insulin induced gene 1 (INSIG)” value (HMGCR pathway [3]) of the same molecule?
Answer: 2.6 fold

Question: What about the “fold change insulin-like growth factor binding protein 1” value (HMGCR pathway [3]) of the same molecule?
Answer: 2.1 fold

Question: What about the “fold change lymphocyte cytosolic plastin 1” value (HMGCR pathway [3]) of the same molecule?
Answer: −2.7 fold

Question: And the fold change lysozyme (HMGCR pathway [3])?
Answer: −2.7 fold

Question: What about the “fold change myosin regulatory light chain interacting protein” value (HMGCR pathway [3]) of the same molecule?
Answer: −2.1 fold

Question: And the fold change nephrosin (HMGCR pathway [3])?
Answer: −2.4 fold

Question: And the “fold change selenoprotein W” value (HMGCR pathway [3])?
Answer: 3.1 fold

Question: What about the “fold change sterol-C4-methyl oxidase-like (SC4MOL)” value (HMGCR pathway [3]) of the same molecule?
Answer: 2.0 fold

Question: What about the fold change sulfotransferase (HMGCR pathway [3]) of the same molecule?
Answer: 3.0 fold

Question: What about the “fold change 3-hydroxy-3-methylglutaryl-Coenzyme A reductase (HMGCR)” value (HMGCR pathway [4]) of the same molecule?
Answer: 6.7 fold

Question: And the “fold change 3-hydroxy-3-methylglutaryl-Coenzyme A synthase 1 (HMGCS)” value (HMGCR pathway [4])?
Answer: 2.8 fold

Question: What about the “fold change 7-dehydrocholesterol reductase (DHCR7)” value (HMGCR pathway [4]) of the same molecule?
Answer: 2.5 fold

Question: What about the “fold change cytochrome P450, family 51 (CYP51)” value (HMGCR pathway [4]) of the same molecule?
Answer: 4.4 fold

Question: And the “fold change farnesyl diphosphate synthetase (FDPS)” value (HMGCR pathway [4])?
Answer: 2.2 fold

Question: What about the “fold change insulin induced gene 1 (INSIG)” value (HMGCR pathway [4]) of the same molecule?
Answer: 5.1 fold

Question: And the “fold change sterol-C4-methyl oxidase-like (SC4MOL)” value (HMGCR pathway [4])?
Answer: 5.6 fold

Question: And the “subcellular localization of mCherry-rhoCAAX (CLVL) chimeric protein” value (mCherry-RhoCLVL)?
Answer: no longer localized predominantly to the membrane; also recorded: mis-localized to the nucleus and cytoplasm
